Reference: a melting point compilation (Tetko et al.; mined from patent text by program, amines drawn as free bases though some values may be those of a salt)

| Compound | melting point [°C] |
| --- | --- |
| CCOC(=O)CCc1c[nH]c2cnc(-n3cncn3)cc12 | 129 to 131 |
| COC(=O)c1c(OC)cc(N(C)C)nc1C | 65 to 66 |
| CCc1cnc(C)c(C(=O)O)c1 | 218 to 220 |
| Cc1cc2oc(=O)c3c(c2cc1N)CCN(CCN1CC2CCC(CC2)C1)C3 | 142 to 143 |
| CCN(c1ccc(Br)cc1)S(=O)(=O)C(F)(F)F | 59 to 60 |
| COc1ccc(NC(=O)c2c(Cl)cccc2Cl)c2nccc(NNC(C)=O)c12 | > 250 |
| Oc1ccc(O)c2nccnc12 | 234 to 236 |
| CCCCn1c(=O)c2c(ncn2CCCCC(C)=O)n(CCCC)c1=O | 88 |
| CCOC(=O)C1C(=O)NC(=O)C(CCN(C)C)(c2cccc(OC)c2)C1CC (stereo not drawn) | 160 to 162 |
| CC(C)(C)C(NC(=O)c1cccc(Cl)c1)Nc1c(Nc2cccnc2Cl)c(=O)c1=O (stereo not drawn) | 213 to 214 |
| O=C1CN(CC2CCN(c3ncc4ncnc(Nc5ccc(F)c(Cl)c5)c4n3)CC2)CCO1 | 202 to 204 |
| CN(CCS(C)(=O)=O)C1CCN(S(=O)(=O)c2ccc(Nc3nccc(-c4ccc(F)cc4)n3)cc2)CC1 | 166 |
| CCCCCCCCCCCCCCC1CC(=O)N(NC(=O)CCc2cc(C(C)(C)C)c(O)c(C(C)(C)C)c2)C1=O (stereo not drawn) | 70 to 77 |
| Cc1nc(Cl)c(Cl)n1CCCCN1CCN(c2ncc(O)cn2)CC1 | 154 to 156 |
| COC(=O)CC(O)CP(=O)(C#Cc1c(-c2ccc(F)cc2)c2n(c1C(C)C)CCCC2)OC (stereo not drawn) | 145 to 146 |
| O=[N+]([O-])c1cccc(Br)c1CBr | 61.5 to 63 |
| CCc1c2s[nH]c(=O)c2c(=O)n2ccc(Cl)cc12 | 222 to 223 |
| Brc1cn2c(Br)cnc2c(Br)n1 | 161 |
| COc1cc(OC)nc(C(C)(C#N)c2cccc(Cl)c2)n1 (stereo not drawn) | 89 to 93 |
| O=C1Nc2ccc(F)c(F)c2C(=O)N2CC[C@@H]12 | > 250 |
| COc1ccc(-c2ncc(N(C)CCCCOCC(=O)O)nc2-c2ccc(OC)cc2)cc1 | 128 to 130 |
| CCC(=O)Oc1ccc(-c2nc(-c3ccc(N(C)C)cc3)c(C)[nH]2)cc1OC | 244 to 246 |
| Cc1ccc(-c2c(C(=O)NCc3cc(C(F)(F)F)cc(C(F)(F)F)c3)n(CCCCO)c(=O)c3cnccc23)cc1 | 128 to 131 |
| O=[N+]([O-])c1ccc2[nH]cc(C3=CCN(Cc4ccccc4)CC3)c2c1 | 168 to 170 |
| COc1cc2nc3ccc(F)cc3sc-2cc1=O | 252 |
| Cc1ccc(S(=O)(=O)Oc2ccc3c4c(nn3CCCN)-c3cnccc3C(=O)c24)cc1 | 211 to 213 |

| Compound | melting point [°C] |
| --- | --- |
| C#CCN(C)C(=O)N1CC(Oc2cccc(C(F)(F)F)c2)C1 | 71 to 73 |
| CCOC(=O)C1=C(COCC#CC(N)=O)NC(C)=C(C(=O)OC)C1c1cccc(Cl)c1Cl (stereo not drawn) | 147 to 148 |
| NNC(=O)c1ccc2c(c1)CCO2 | 148 to 149 |
| COc1cc2c(c(Cl)c1Cl)SC(C(C)C)C2O (stereo not drawn) | 119 to 123 |
| COC(=O)c1cc(Cl)c(OC)c(Cl)c1N | 72 to 73 |
| CCCc1c2nc(C(=O)O)cc(Cl)c2cc2c(=O)cc(C(=O)O)oc12 | 336 to 338 |
| Cc1ccc(CNc2nc(OCC(F)(F)F)nc(Oc3cccc(C(F)(F)F)c3)n2)o1 | 116 to 118 |
| CC(=O)CC(=O)NC1CCCCC1 | 66 to 69 |
| CCCOC(=O)C1=C(N)NC(C)=C(C(=O)OC(C)C)C1c1cccc([N+](=O)[O-])c1 (stereo not drawn) | 199 |
| Cc1nc2c(c(Cl)c1C(=O)NC(=N)N)CCCCC2 | 210 to 212 |
| CCOC(=O)CCNC(=O)Nc1ccncc1 | 95 |
| CC1(C)CC(=O)c2cc(C#N)c(NC3CCCC3)nc2C1 | 154 to 156 |
| N#CC1CN1C(=O)NC(=O)CCl (stereo not drawn) | 152 to 155 |
| Cc1nc(N)sc1C(=O)OC(C)(C)C | 167 to 170 |
| CC(C)n1c(=O)nc(N(C)C)[nH]c1=O | 213 to 214 |
| CCO[C@@H](Cc1ccc(OCCc2nc(C(C)(C)C)oc2C)c2ccsc12)C(=O)O | 152 to 153 |
| CC1(C)CC(=O)CC(C)(C)N1C#N | 75 to 76 |
| Cn1c2c(c3ccccc31)CCNC2 | > 250 |
| CCOC(=O)C(C#N)c1cn(C(=O)OCC)c2ccc(OC)cc12 (stereo not drawn) | 81 to 83 |
| CC(C)(C)COc1c(-c2ccc(S(N)(=O)=O)cc2)cnn(-c2ccc(F)c(F)c2)c1=O | 173 to 175 |
| S=C=Nc1ccc2oc(-c3ccc(CN4CCOCC4)s3)nc2c1 | 135 to 138 |
| CCOC(=O)C(=C(C)N)c1nc(N)c([N+](=O)[O-])nc1Cl | 162 to 163 |
| Oc1c(Cl)c(Cl)c(-c2c(Cl)c(Cl)c(O)c(Cl)c2Cl)c(Cl)c1Cl | 94 to 96 |
| CC=CCn1c(N(C(C)=O)c2cc(C)cc(C)c2)c(CC)c(=O)[nH]c1=O | 218 to 220 |
| CCOc1nc2cc(C)nn2c2ccncc12 | 156 |
| O=C1C(Br)=CC(Br)(Br)C=C1Br | 123 to 127 |

Results, then the compound that gave them:

| melting point [°C] | Compound |
| --- | --- |
| 182 | O=c1nc(-c2ccccc2)c2ccccc2n1CC(F)(F)F |
| 165 | CSc1ccc(C(=O)c2cc(-c3ccccc3)c(N3CCOCC3)s2)cc1 |
| 110 to 111 | Clc1cccc(-c2cnn(-c3ccccn3)c2)c1 |
| 305 to 308 | Nc1nc2c(ncn2Cc2ccccc2)c(=O)[nH]1 |
| 115 | COc1ccc2c(-c3ccccc3)c(C(=O)c3ccc(Cl)cc3)sc2c1 |
| 65 to 72 | CCc1cc(C#N)cc(C)c1CC(=O)OC |
| 225 | N#CCCn1c2ccccc2c2cc([N+](=O)[O-])ccc21 |
| 82.5 to 84.5 | CC(=O)c1ccc(-c2ccc(Br)cc2)c(Br)c1 |
| 184 to 186 | COC1(c2cc(F)cc(OCc3ccc(C(=O)O)cc3)c2)CCOCC1 |
| 114 to 115 | CC1(C)CCN(C(=O)NCc2ccccc2)c2cc(C#N)ccc21 |
| 167 to 168 | CNc1cc(CO)cc(S(N)(=O)=O)c1Oc1ccccc1 |
| 251 to 254 | O=C(O)c1ccc2c(c1)Sc1ccccc1C=C2 |
| 167 to 168 | Cc1cc(CC(=O)O)[nH]c1C(=O)c1ccccc1 |
| 160 | CC(C)OC(=O)N1Cc2c(-c3ccc(F)cc3)ncn2-c2ccccc21 |
| 233 to 234 | Cn1c2sc(C(=O)O)cc2c2cccc(Cl)c21 |
| 174 to 175 | CC(C)(C)c1cc(CCc2ccccc2NC(=O)NC2CCN(Cc3ccc(F)cc3)CC2)cc(C(C)(C)C)c1O |
| 246 to 247 | COc1ccn2nc(-c3ccccc3)c(-c3ccc(=O)[nH]n3)c2c1 |
| 133 | CCOC(=O)CCC(S)COC(=O)C1=C(C)NC(C)=C([N+](=O)[O-])C1c1ccccc1OCc1ccccc1 (stereo not drawn) |
| 99 to 100 | CCOC(=O)c1ccc(Sc2cc3c(cc2C(C)C)C(C)(C)CCC3(C)C)cc1 |
| 290 | Cc1cc(C(=O)Nc2ccc(Cl)nc2)ccc1[N+](=O)[O-] |
| 177 to 181 | CS(=O)(=O)c1nccc(-n2ncc3ccccc32)n1 |
| 94 | COc1nc2cccccc-2n1 |
| 123 | O=Cc1cc2ccc3c4ccccc4ccc3c2o1 |
| 128 to 129 | Cc1sc(-c2ccccc2)nc1COc1ccc(COc2ncccc2CC(=O)O)cc1 |
| 176 to 177 | C(C#Cc1cccc2ccccc12)#Cc1cccc2ccccc12 |
| 129 | Cc1c(NC(=O)c2ccc(OCC3CCOC3)cc2)ccc2cc(CNCC(C)(C)C)cnc12 (stereo not drawn) |

| melting point [°C] | Compound |
| --- | --- |
| 134 to 135 | CCOC(=O)c1cc(-n2c(-c3ccccc3)cc3c2CCc2ccccc2-3)ccc1O |
| 128 to 130 | Clc1cccc(Oc2ccc(OCc3cc(C4CC4)no3)cc2)n1 |
| 104 to 110 | N#Cc1c(NCCCN2CCCC2)ncc2c1-c1ccccc1C(c1ccc(Cl)c(Cl)c1)C2 (stereo not drawn) |
| 153 to 157 | CC(COc1ccc(CC2SC(=O)N(C(c3ccccc3)(c3ccccc3)c3ccccc3)C2=O)cc1)NC(=O)OC(C)(C)C (stereo not drawn) |
| 120 to 122 | COc1ccc(C(=Cc2cc(OC)c(OC)cc2[N+](=O)[O-])C(=O)N2CCCC2C(=O)O)cc1 (stereo not drawn) |
| 82 to 83 | Cc1nn(C)c(SCc2ccccc2)c1[N+](=O)[O-] |
| 190 to 193 | CCCc1cc(-c2nc(-c3ccc(C)cc3)cs2)ccn1 |
| 223 to 225 | Cc1nc(-n2ccc(OCc3ccccc3)cc2=O)sc1C(=O)NCc1ccc(F)cc1 |
| 173 to 177 | O=Cc1cc2ccc3ccsc3c2c2ccccc12 |
| 147 | CC(=O)Nc1ncc(Cc2ccc(Cl)cc2)c(NC(C)=O)n1 |
| 203 | O=C1c2ccc([N+](=O)[O-])cc2C2(c3ccccc3)NCCN12 (stereo not drawn) |
| 158 to 162 | NC(=O)c1cccc(-c2ccnc(C(=O)N(O)Cc3ccccc3)c2)c1 |
| 174 to 176 | Cc1c(-c2ccc(O)cc2)n(Cc2ccc(C#CCN3CCCC3)cc2)c2ccc(O)cc12 |
| 132 to 135 | CC(=O)OCC1OC(n2ccc3c(F)cccc32)C(OC(C)=O)C(OC(C)=O)C1OC(C)=O (stereo not drawn) |
| 122 to 124 | CC(C)NC(=O)C1CC(=O)N(Cc2ccccc2)C1 (stereo not drawn) |
| 72 to 74 | O=C1NC(=O)C(Nc2ccc(CCNC[C@H](O)COc3ccc(Oc4ccccc4)cc3)cc2)S1 (stereo partly drawn) |
| 140 to 141 | COC(=O)c1cncn1C1c2ccccc2C(OC)(OC)C1(C)C (stereo not drawn) |
| 180 | CC(=O)Nc1cc2c(s1)C(c1ccccc1)CN(C)CC2 (stereo not drawn) |
| 127 to 139 | NCc1cccc(Cn2ccc(OCc3ccc(F)cc3)c(Br)c2=O)c1 |
| 108 to 110 | COC(=O)C(C)(C)Cc1ccc2cc(CC(C)(C)C(=O)OC)ccc2c1 |
| 184 to 187 | O=C(NC1CCN(CCNC(=O)c2n[nH]c3ccccc23)CC1)OCc1ccccc1 |
| 109 to 110 | N=C(Nc1cccc(NC(=O)/C=C/c2ccc(Cl)cc2)c1)c1ccccc1 |
| 164 to 166 | O=C1N(Cc2ccc3nonc3c2)c2ccccc2C12COc1cc3c(cc12)OCCO3 (stereo not drawn) |
| 150 to 153 | Cc1c(C(=O)Nc2ccc(N(CCO)CCO)c(C#N)c2)c2cc(F)ccc2n1CC(=O)O |
| 119 to 120 | CCc1nc2ccn(-c3ccccc3)n2c(=O)c1C(=O)O |
